Experimental data taken from patent US20260159512A1, “BCAT2 INHIBITORS” (AGIOS PHARMACEUTICALS, INC., priority 2021, published 2026).
Several values for one entry are separate records, joined by “and”; a condition that tells them apart may be missing. Equal values may be shown once.

Assays:
Settings in all cases: average where tested multiple times
[1] = target: T1, BCAT2 (Homo sapiens, UniProt O15382); test: BCAT2 in vitro enzyme inhibition assay (resazurin/diaphorase-coupled fluorescence); assay type: biochemical
T1 sequence (O15382 28-392): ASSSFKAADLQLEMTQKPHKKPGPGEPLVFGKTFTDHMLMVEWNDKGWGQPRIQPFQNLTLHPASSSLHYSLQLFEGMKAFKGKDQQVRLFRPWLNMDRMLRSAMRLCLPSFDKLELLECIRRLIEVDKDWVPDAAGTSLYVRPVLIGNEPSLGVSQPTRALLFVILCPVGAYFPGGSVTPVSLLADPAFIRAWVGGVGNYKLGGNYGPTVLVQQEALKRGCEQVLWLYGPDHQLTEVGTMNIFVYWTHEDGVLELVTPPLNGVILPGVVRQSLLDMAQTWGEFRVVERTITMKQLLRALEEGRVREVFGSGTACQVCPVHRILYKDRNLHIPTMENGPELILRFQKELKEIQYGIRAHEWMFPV
Outline: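 Coupled fluorescence readout: glutamate formed from L-leucine/α-ketoglutarate transamination drives GDH/NAD/diaphorase reduction of resazurin (Ex 540/Em 590). Human BCAT2 was first exposed 1 h at room temperature to compound, top final 100 μM in 3-fold, 10-point series; substrate reaction ran 1 h before SDS quench, in technical duplicate with DMSO max and enzyme-free min controls.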

[2] = target: T2, hBCAT1 (Homo sapiens, UniProt P54687); test: BCAT1 in vitro enzyme inhibition assay (resazurin/diaphorase-coupled fluorescence); assay type: biochemical
T2 sequence (P54687 1-386): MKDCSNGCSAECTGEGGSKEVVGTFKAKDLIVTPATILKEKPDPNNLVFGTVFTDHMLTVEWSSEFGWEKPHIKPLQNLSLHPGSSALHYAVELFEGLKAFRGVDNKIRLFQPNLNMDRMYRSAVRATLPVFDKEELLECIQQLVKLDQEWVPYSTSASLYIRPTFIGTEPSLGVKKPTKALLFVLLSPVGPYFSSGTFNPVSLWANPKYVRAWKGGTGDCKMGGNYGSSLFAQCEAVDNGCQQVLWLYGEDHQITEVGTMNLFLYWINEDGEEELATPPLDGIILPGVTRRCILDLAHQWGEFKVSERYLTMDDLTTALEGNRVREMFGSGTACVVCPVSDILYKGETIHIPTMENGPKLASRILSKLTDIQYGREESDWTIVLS
Outline: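 Human BCAT1 activity read by resazurin/diaphorase-coupled fluorescence. Compounds added from 50× DMSO stocks at 1:50, giving 10-point 3-fold titrations from 100 μM top final concentration. Run in technical duplicate; repeat tests averaged.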

[3] = target: T1, BCAT2; test: BCAT2 in vitro cell inhibition using engineered A549 cells (KMV cell assay, 13C6-KMV by LC-MS/MS); assay type: cell-based; set-up: The result was an engineered A549 cell line that expressed endogenous BCAT2; endogenous in cells; host or cells: A549 cells with MUT and BCAT1 knocked out by CRISPR/CAS9; key to BCAT2 Cell Inhibition: A: less than or equal to 0.100 μM; B: greater than 0.100 and less than or equal to 0.500 μM; C: greater than 0.500 and less than or equal to 1.000 μM; d: greater than 1.000 μM; E: no fit

## O=C(NC1CNCC(n2c(-c3ncccc3F)nc3cnc(-n4nccn4)cc32)C1)c1ncc(C(F)F)s1 (stereo not shown) [Example 125, 5-(difluoromethyl)-N-(5-(2-(3-fluoropyridin-2-yl)-6-(2H-1,2,3-triazol-2-yl)-1H-imidazo[4,5-c]pyridin-1-yl)piperidin-3-yl)thiazole-2-carboxamide]
[1]
  IC50: ≤ 100 nM
[2]
  IC50: 1000 to 5000 nM
[3]
  IC50: 100 to 500 nM

## CC(=O)N1CC(NC(=O)c2ncc(C(F)F)s2)CC(n2c(-c3ccccc3F)nc3cnc(-c4ncco4)cc32)C1 (stereo not shown) [Example 126, N-(1-acetyl-5-(2-(2-fluorophenyl)-6-(oxazol-2-yl)-1H-imidazo[4,5-c]pyridin-1-yl)piperidin-3-yl)-5-(difluoromethyl)thiazole-2-carboxamide]
[1]
  IC50: ≤ 100 nM
[2]
  IC50: < 500 nM
[3]
  IC50: ≤ 100 nM

## CC(=O)N1C[C@@H](NC(=O)c2ncc(C(F)F)s2)C[C@@H](n2c(-c3ccccc3F)nc3cnc(-c4ncco4)cc32)C1 [Example 127, N-((3S,5R)-1-acetyl-5-(2-(2-fluorophenyl)-6-(oxazol-2-yl)-1H-imidazo[4,5-c]pyridin-1-yl)piperidin-3-yl)-5-(difluoromethyl)thiazole-2-carboxamide]
[1]
  IC50: 100 to 500 nM
[2]
  IC50: 1000 to 5000 nM
[3]
  IC50: > 1000 nM

## CC(=O)N1C[C@H](NC(=O)c2ncc(C(F)F)s2)C[C@H](n2c(-c3ccccc3F)nc3cnc(-c4ncco4)cc32)C1 [Example 128, N-((3R,5S)-1-acetyl-5-(2-(2-fluorophenyl)-6-(oxazol-2-yl)-1H-imidazo[4,5-c]pyridin-1-yl)piperidin-3-yl)-5-(difluoromethyl)thiazole-2-carboxamide]
[1]
  IC50: ≤ 100 nM
[2]
  IC50: < 500 nM
[3]
  IC50: ≤ 100 nM

## CC(O)CN1CC(NC(=O)c2ncc(C(F)F)s2)CC(n2c(-c3ncccc3F)nc3cnc(-n4nccn4)cc32)C1 (stereo not shown) [Example 129, 5-(difluoromethyl)-N-(5-(2-(3-fluoropyridin-2-yl)-6-(2H-1,2,3-triazol-2-yl)-1H-imidazo[4,5-c]pyridin-1-yl)-1-(2-hydroxypropyl)piperidin-3-yl)thiazole-2-carboxamide]
[1]
  IC50: ≤ 100 nM
[2]
  IC50: > 5000 nM
[3]
  IC50: > 1000 nM

## Cc1coc(-c2cc3c(cn2)nc(-c2ccccc2F)n3C2CC(NC(=O)c3ncc(Cl)s3)CN(C)C2)n1 (stereo not shown) [Example 130, 5-chloro-N-(5-(2-(2-fluorophenyl)-6-(4-methyloxazol-2-yl)-1H-imidazo[4,5-c]pyridin-1-yl)-1-methylpiperidin-3-yl)thiazole-2-carboxamide]
[1]
  IC50: ≤ 100 nM
[2]
  IC50: 1000 to 5000 nM
[3]
  IC50: 100 to 500 nM

## CC(=O)N1CC(NC(=O)c2ccc(Cl)s2)CC(n2c(CC(C)C)nc3cnc(-n4nccn4)cc32)C1 (stereo not shown) [Example 131, N-(1-acetyl-5-(2-isobutyl-6-(2H-1,2,3-triazol-2-yl)-1H-imidazo[4,5-c]pyridin-1-yl)piperidin-3-yl)-5-chlorothiophene-2-carboxamide]
[1]
  IC50: ≤ 100 nM
[2]
  IC50: < 500 nM
[3]
  IC50: 100 to 500 nM

## CC(=O)N1CC(NC(=O)c2ccc(Cl)s2)CC(n2c(-c3ccccc3F)nc3cnc(-n4nccn4)cc32)C1 (stereo not shown) [Example 132, N-(1-acetyl-5-(2-(2-fluorophenyl)-6-(2H-1,2,3-triazol-2-yl)-1H-imidazo[4,5-c]pyridin-1-yl)piperidin-3-yl)-5-chlorothiophene-2-carboxamide]
[1]
  IC50: ≤ 100 nM
[2]
  IC50: < 500 nM
[3]
  IC50: ≤ 100 nM

## O=C(N[C@H]1CCC[C@@H](n2c(-c3ccccc3F)nc3cc(-n4nccn4)ncc32)C1)c1ncc(C(F)F)s1 [Example 148, 5-(difluoromethyl)-N-((1S,3R)-3-(2-(2-fluorophenyl)-6-(2H-1,2,3-triazol-2-yl)-3H-imidazo[4,5-c]pyridin-3-yl)cyclohexyl)thiazole-2-carboxamide]
[1]
  IC50: ≤ 100 nM
[2]
  IC50: > 5000 nM
[3]
  IC50: > 1000 nM

## O=C(N[C@H]1CCC[C@@H](n2c(-c3ccccc3F)nc3cc(-n4ccnn4)ncc32)C1)c1ncc(C(F)F)s1 [Example 149, 5-(difluoromethyl)-N-((1S,3R)-3-(2-(2-fluorophenyl)-6-(1H-1,2,3-triazol-1-yl)-3H-imidazo[4,5-c]pyridin-3-yl)cyclohexyl)thiazole-2-carboxamide]
[1]
  IC50: ≤ 100 nM
[2]
  IC50: 1000 to 5000 nM
[3]
  IC50: 100 to 500 nM

## O=C(N[C@H]1CCC[C@@H](n2c(-c3ccccn3)nc3cc(-n4ccnn4)ncc32)C1)c1ccc(Br)s1 [Example 152, 5-bromo-N-((1S,3R)-3-(2-(pyridin-2-yl)-6-(1H-1,2,3-triazol-1-yl)-3H-imidazo[4,5-c]pyridin-3-yl)cyclohexyl)thiophene-2-carboxamide]
[1]
  IC50: ≤ 100 nM
[2]
  IC50: 500 to 1000 nM
[3]
  IC50: ≤ 100 nM

## Cc1nc(-c2cc3c(cn2)nc(CC(C)C)n3[C@@H]2CCC[C@H](NC(=O)c3ncc(Cl)s3)C2)cs1 [Example 158, 5-chloro-N-((1S,3R)-3-(2-isobutyl-6-(2-methylthiazol-4-yl)-1H-imidazo[4,5-c]pyridin-1-yl)cyclohexyl)thiazole-2-carboxamide]
[1]
  IC50: ≤ 100 nM
[2]
  IC50: 1000 to 5000 nM
[3]
  IC50: > 1000 nM

## CC(C)Cc1nc2cnc(-c3cscn3)cc2n1[C@@H]1CCC[C@H](NC(=O)c2ncc(Cl)s2)C1 [Example 159, 5-chloro-N-((1S,3R)-3-(2-isobutyl-6-(thiazol-4-yl)-1H-imidazo[4,5-c]pyridin-1-yl)cyclohexyl)thiazole-2-carboxamide]
[1]
  IC50: ≤ 100 nM
[2]
  IC50: < 500 nM
[3]
  IC50: 100 to 500 nM

## CC(C)Cc1nc2cnc(-c3cccc(F)n3)cc2n1[C@@H]1CCC[C@H](NC(=O)c2ncc(Cl)s2)C1 [Example 160, 5-chloro-N-((1S,3R)-3-(6-(6-fluoropyridin-2-yl)-2-isobutyl-1H-imidazo[4,5-c]pyridin-1-yl)cyclohexyl)thiazole-2-carboxamide]
[1]
  IC50: ≤ 100 nM
[2]
  IC50: 500 to 1000 nM
[3]
  IC50: 500 to 1000 nM

## Cc1cccnc1-c1cc2c(cn1)nc(-c1ccccc1F)n2[C@@H]1CCC[C@H](NC(=O)c2ncc(Cl)s2)C1 [Example 161, 5-chloro-N-((1S,3R)-3-(2-(2-fluorophenyl)-6-(3-methylpyridin-2-yl)-1H-imidazo[4,5-c]pyridin-1-yl)cyclohexyl)thiazole-2-carboxamide]
[1]
  IC50: ≤ 100 nM
[2]
  IC50: 1000 to 5000 nM
[3]
  IC50: 100 to 500 nM

## CC(C)(C)Cc1nc2cnc(-c3nc[nH]n3)cc2n1[C@@H]1CCC[C@H](NC(=O)c2ncc(Cl)s2)C1 [Example 162, 5-chloro-N-((1S,3R)-3-(2-neopentyl-6-(1H-1,2,4-triazol-3-yl)-1H-imidazo[4,5-c]pyridin-1-yl)cyclohexyl)thiazole-2-carboxamide]
[1]
  IC50: ≤ 100 nM
[2]
  IC50: < 500 nM
[3]
  IC50: ≤ 100 nM

## CC(C)Cc1nc2cnc(-c3nccs3)cc2n1[C@@H]1CCC[C@H](NC(=O)c2ncc(Cl)s2)C1 [Example 163, 5-chloro-N-((1S,3R)-3-(2-isobutyl-6-(thiazol-2-yl)-1H-imidazo[4,5-c]pyridin-1-yl)cyclohexyl)thiazole-2-carboxamide]
[1]
  IC50: ≤ 100 nM
[2]
  IC50: < 500 nM
[3]
  IC50: ≤ 100 nM

## CC(C)Cc1nc2cnc(-c3ncnn3C)cc2n1[C@@H]1CCC[C@H](NC(=O)c2ncc(Cl)s2)C1 [Example 164, 5-chloro-N-((1S,3R)-3-(2-isobutyl-6-(1-methyl-1H-1,2,4-triazol-5-yl)-1H-imidazo[4,5-c]pyridin-1-yl)cyclohexyl)thiazole-2-carboxamide]
[1]
  IC50: 100 to 500 nM and 500 to 1000 nM
[2]
  IC50: > 5000 nM
[3]
  BCAT2 Cell Inhibition: E
  IC50: 100 to 500 nM

## Cc1nc(-c2cc3c(cn2)nc(CC(C)C)n3[C@@H]2CCC[C@H](NC(=O)c3ncc(Cl)s3)C2)n[nH]1 [Example 165, 5-chloro-N-((1S,3R)-3-(2-isobutyl-6-(5-methyl-1H-1,2,4-triazol-3-yl)-1H-imidazo[4,5-c]pyridin-1-yl)cyclohexyl)thiazole-2-carboxamide]
[1]
  IC50: ≤ 100 nM
[2]
  IC50: < 500 nM
[3]
  IC50: ≤ 100 nM
